Data as given in patent US20250263390A1, “NOVEL SUBSTITUTED 6,7-DIHYDRO-5H-BENZO[7]ANNULENE COMPOUNDS AND THEIR DERIVATIVES, PROCESSES FOR THEIR PREPARATION AND THERAPEUTIC USES THEREOF” (SANOFI, priority 2022, published 2025).

Molecular target: T1, ERα (Homo sapiens, UniProt P03372)
T1 construct: host or cells: MCF7
T1 sequence (P03372 1-595): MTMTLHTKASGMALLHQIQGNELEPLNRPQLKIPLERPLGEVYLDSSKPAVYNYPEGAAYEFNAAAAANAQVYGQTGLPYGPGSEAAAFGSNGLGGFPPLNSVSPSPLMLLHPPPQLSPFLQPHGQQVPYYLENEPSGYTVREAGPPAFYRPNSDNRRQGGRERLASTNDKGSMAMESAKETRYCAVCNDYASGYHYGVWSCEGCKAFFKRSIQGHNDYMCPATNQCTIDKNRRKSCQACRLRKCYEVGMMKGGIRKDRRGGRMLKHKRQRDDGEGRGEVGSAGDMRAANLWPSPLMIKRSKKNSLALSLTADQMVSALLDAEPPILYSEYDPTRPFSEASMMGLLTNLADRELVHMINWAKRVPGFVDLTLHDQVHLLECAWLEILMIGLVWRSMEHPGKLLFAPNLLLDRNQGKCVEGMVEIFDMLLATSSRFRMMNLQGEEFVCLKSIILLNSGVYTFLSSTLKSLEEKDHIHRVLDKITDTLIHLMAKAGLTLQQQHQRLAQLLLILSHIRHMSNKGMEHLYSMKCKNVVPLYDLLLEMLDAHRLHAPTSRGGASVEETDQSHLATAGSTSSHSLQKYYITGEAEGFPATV
Assay: Estrogen receptor degradation activity: breast cancer cell ERα in cell western assay
Format: cell-based
Settings: MCF7 cells, 4 hours, relative to fulvestrant 0.1 μM positive control
Protocol: Test: Estrogen Receptor Degradation Activity Said test involves measuring the in vitro degradation activity of the compounds of the Table 1a. The measurements of the degradation activities were made using a breast cancer cell ERα in cell western assay as described hereunder. MCF7 cells (ATCC) were seeded in 384 wells microplate (collagen coated) at a concentration of 10000 cells/30 μL per well in red phenol free MEM alpha medium (invitrogen) containing 5% charcoal dextran striped FBS. The following day, 9 points serial 1:5 dilution of each compound was added to the cells in 2.5p L at final concentrations ranging from 0.3-0.0000018 μM (in table 2), or 0.1 μM for fulvestrant (using as positive control). At 4 hours post compound addition the cells were fixed by adding 25 μL of formalin (final concentration 5% formalin containing 0.1% triton) for 10 minutes at room temperature and then washed twice with PBS. Then, 50 μL of LI-COR blocking buffer containing 0.1% Triton was added to plate for 30 minutes at room temperature. LI-COR blocking buffer was removed and cells were incubated overnight at cold room with 50 μL anti-ER rabbit monoclonal antibody (Thermo scientific MA1-39540) diluted at 1:1000 in LI-COR blocking buffer containing 0.1% tween-20. Wells which were treated with blocking buffer but no antibody were used as background control. Wells were washed twice with PBS (0.1% tween-20) and incubated at 37° C. for 60 minutes in LI-COR (0.1% tween-20) containing goat anti-rabbit antibody Alexa 488 (1:1000) and Syto-64 a DNA dye (2 μM final concentration). Cells were then washed 3 times in PBS and scanned in ACUMEN explorer (TTP-Labtech). Integrated intensities in the green fluorescence and red fluorescence were measured to determine the levels of ERα and DNA respectively. The degradation activity with respect to estrogen receptors in this test is given by the concentration which degrades 50% of the estrogen receptor (or IC50) in nM. The % of ERα levels decrease were determined as follows: % inhibition=100*(1−(sample−fulvestrant: DMSO−fulvestrant)).

Row | % Degradation At 0.3 μM [%] | SMILES
1 | 100 | O=C(O)c1ccc2c(c1)CCCC(c1ccc(F)c(O)c1F)=C2c1ccc(CC2CN(CCCF)C2)cc1 [Compound 47, 8-(2,4-difluoro-3-hydroxyphenyl)-9-(4-((1-(3-fluoropropyl)azetidin-3-yl)methyl)phenyl)-6,7-dihydro-5H-benzo[7]annulene-3-carboxylic acid]
2 | 100 | Cc1c(C2=C(c3ccc(CC4CN(CCCF)C4)cc3)c3ccc(C(=O)O)cc3CCC2)ccc(C(F)(F)F)c1F.Cl [Compound 64, 8-(3-fluoro-2-methyl-4-(trifluoromethyl)phenyl)-9-(4-((1-(3-fluoropropyl)azetidin-3-yl)methyl)phenyl)-6,7-dihydro-5H-benzo[7]annulene-3-carboxylic acid, hydrochloride]
3 | 64 | CC1(C)CCC(C2=C(c3ncc(CC4CN(CCC(F)F)C4)cc3F)c3ccc(C(=O)O)cc3CCC2)CC1 [Compound 13, 9-(5-((1-(3,3-difluoropropyl)azetidin-3-yl)methyl)-3-fluoropyridin-2-yl)-8-(4,4-dimethylcyclohexyl)-6,7-dihydro-5H-benzo[7]annulene-3-carboxylic acid]
4 | 83 | COc1c(C2=C(c3ccc(CC4CN(CCCF)C4)cc3)c3ccc(C(=O)O)cc3CCC2)cccc1C(F)(F)F [Compound 4, 9-(4-((1-(3-fluoropropyl)azetidin-3-yl)methyl)phenyl)-8-(2-methoxy-3-(trifluoromethyl)phenyl)-6,7-dihydro-5H-benzo[7]annulene-3-carboxylic acid]
5 | 91 | Cc1ccc(C(F)(F)F)c(C2=C(c3ccc(CC4CN(CCCF)C4)cc3)c3ccc(C(=O)O)cc3CCC2)c1.Cl [Compound 20, 9-(4-((1-(3-fluoropropyl)azetidin-3-yl)methyl)phenyl)-8-(5-methyl-2-(trifluoromethyl)phenyl)-6,7-dihydro-5H-benzo[7]annulene-3-carboxylic acid, hydrochloride]
6 | 90 | O=C(O)c1ccc2c(c1)CCCC(c1ccc(C(F)(F)F)c(O)c1)=C2c1ccc(CC2CN(CCCF)C2)cc1 [Compound 52, 9-(4-((1-(3-fluoropropyl)azetidin-3-yl)methyl)phenyl)-8-(3-hydroxy-4-(trifluoromethyl)phenyl)-6,7-dihydro-5H-benzo[7]annulene-3-carboxylic acid]
7 | 92 | COc1cccc(OC)c1C1=C(c2ccc(CC3CN(CCCF)C3)cc2)c2ccc(C(=O)O)cc2CCC1.Cl [Compound 51, 8-(2,6-dimethoxyphenyl)-9-(4-((1-(3-fluoropropyl)azetidin-3-yl)methyl)phenyl)-6,7-dihydro-5H-benzo[7]annulene-3-carboxylic acid, hydrochloride]
8 | 93 | COc1cccc(C2=C(c3ccc(CC4CN(CCCF)C4)cc3)c3ccc(C(=O)O)cc3CCC2)c1C [Compound 7, 9-(4-((1-(3-fluoropropyl)azetidin-3-yl)methyl)phenyl)-8-(3-methoxy-2-methylphenyl)-6,7-dihydro-5H-benzo[7]annulene-3-carboxylic acid]
9 | 92 | Cl.O=C(O)c1ccc2c(c1)CCCC(c1cccc(OC(F)(F)F)c1)=C2c1ccc(CC2CN(CCCF)C2)cc1 [Compound 22, 9-(4-((1-(3-fluoropropyl)azetidin-3-yl)methyl)phenyl)-8-(3-(trifluoromethoxy)phenyl)-6,7-dihydro-5H-benzo[7]annulene-3-carboxylic acid, hydrochloride]

Continued, compound first:

Row | SMILES | % Degradation At 0.3 μM [%]
10 | O=C(O)c1ccc2c(c1)CCCC(c1cccc(F)c1OC(F)F)=C2c1ccc(CC2CN(CCCF)C2)cc1 [Compound 1, 8-(2-(difluoromethoxy)-3-fluorophenyl)-9-(4-((1-(3-fluoropropyl)azetidin-3-yl)methyl)phenyl)-6,7-dihydro-5H-benzo[7]annulene-3-carboxylic acid] | 85
11 | COc1ccc(C(F)(F)F)c(C2=C(c3ccc(CC4CN(CCCF)C4)cc3)c3ccc(C(=O)O)cc3CCC2)c1 [Compound 35, 9-(4-((1-(3-fluoropropyl)azetidin-3-yl)methyl)phenyl)-8-(5-methoxy-2-(trifluoromethyl)phenyl)-6,7-dihydro-5H-benzo[7]annulene-3-carboxylic acid] | 91
12 | O=C(O)c1ccc2c(c1)CCCC(c1c(Cl)cccc1OC(F)(F)F)=C2c1ccc(CC2CN(CCCF)C2)cc1 [Compound 50, 8-(2-chloro-6-(trifluoromethoxy)phenyl)-9-(4-((1-(3-fluoropropyl)azetidin-3-yl)methyl)phenyl)-6,7-dihydro-5H-benzo[7]annulene-3-carboxylic acid] | 91
13 | O=C(O)c1ccc2c(c1)CCCC(c1ccccc1OC(F)(F)F)=C2c1ccc(CC2CN(CCCF)C2)cc1 [Compound 30, 9-(4-((1-(3-fluoropropyl)azetidin-3-yl)methyl)phenyl)-8-(2-(trifluoromethoxy)phenyl)-6,7-dihydro-5H-benzo[7]annulene-3-carboxylic acid] | 92
14 | COc1cccc(F)c1C1=C(c2ccc(CC3CN(CCCF)C3)cc2)c2ccc(C(=O)O)cc2CCC1 [Compound 45, 8-(2-fluoro-6-methoxyphenyl)-9-(4-((1-(3-fluoropropyl)azetidin-3-yl)methyl)phenyl)-6,7-dihydro-5H-benzo[7]annulene-3-carboxylic acid] | 92
15 | Cc1ccc(C2=C(c3ccc(CC4CN(CCCF)C4)cc3)c3ccc(C(=O)O)cc3CCC2)c(C)c1F [Compound 57, 8-(3-fluoro-2,4-dimethylphenyl)-9-(4-((1-(3-fluoropropyl)azetidin-3-yl)methyl)phenyl)-6,7-dihydro-5H-benzo[7]annulene-3-carboxylic acid] | 92
16 | COc1ccc(C(F)(F)F)cc1C1=C(c2ccc(CC3CN(CCCF)C3)cc2)c2ccc(C(=O)O)cc2CCC1.Cl [Compound 28, 9-(4-((1-(3-fluoropropyl)azetidin-3-yl)methyl)phenyl)-8-(2-methoxy-5-(trifluoromethyl)phenyl)-6,7-dihydro-5H-benzo[7]annulene-3-carboxylic acid, hydrochloride] | 80
17 | COc1ccc(C2=C(c3ccc(CC4CN(CCCF)C4)cc3)c3ccc(C(=O)O)cc3CCC2)cc1C(F)(F)F.Cl [Compound 17, 9-(4-((1-(3-fluoropropyl)azetidin-3-yl)methyl)phenyl)-8-(4-methoxy-3-(trifluoromethyl)phenyl)-6,7-dihydro-5H-benzo[7]annulene-3-carboxylic acid, hydrochloride] | 92
18 | Cc1cc(C2=C(c3ccc(CC4CN(CCCF)C4)cc3)c3ccc(C(=O)O)cc3CCC2)c(C)cc1F [Compound 31, 8-(4-fluoro-2,5-dimethylphenyl)-9-(4-((1-(3-fluoropropyl)azetidin-3-yl)methyl)phenyl)-6,7-dihydro-5H-benzo[7]annulene-3-carboxylic acid] | 92
19 | O=C(O)c1ccc2c(c1)CCCC(c1cccc3c1OCCC3)=C2c1ccc(CC2CN(CCCF)C2)cc1 [Compound 9, 8-(chroman-8-yl)-9-(4-((1-(3-fluoropropyl)azetidin-3-yl)methyl)phenyl)-6,7-dihydro-5H-benzo[7]annulene-3-carboxylic acid] | 88
20 | Cl.O=C(O)c1ccc2c(c1)CCCC(c1ccc(C(F)(F)F)cc1C1CC1)=C2c1ccc(CC2CN(CCCF)C2)cc1 [Compound 32, 8-(2-cyclopropyl-4-(trifluoromethyl)phenyl)-9-(4-((1-(3-fluoropropyl)azetidin-3-yl)methyl)phenyl)-6,7-dihydro-5H-benzo[7]annulene-3-carboxylic acid, hydrochloride] | 91
21 | CC1(C)CCC(C2=C(c3ncc(CC4CN(CCCF)C4)cc3F)c3ccc(C(=O)O)cc3CCC2)CC1 [Compound 10, 8-(4,4-dimethylcyclohexyl)-9-(3-fluoro-5-((1-(3-fluoropropyl)azetidin-3-yl)methyl)pyridin-2-yl)-6,7-dihydro-5H-benzo[7]annulene-3-carboxylic acid] | 83
